Experimental data reported in EP0738149B1 (priority 1994, dated 1995).
Counter-ions that a name gives are not always drawn. Like-named read-outs stand apart in the source and are kept apart here.

Experiments:
[1] = system: rats; conditions: Rattus norvegicus, po, read-out: RATS scMet ED50
[2] = system: rats; assay: Maximal electroshock (MES) model in rats, p.o.;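 for all read-outs here: rat MES model gauging antiepileptic efficacy versus generalized and partial seizures after oral dosing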; type: in vivo; conditions: for ED50: Rattus norvegicus, po
[3] = system: mice; assay: Maximal electroshock (MES) model in mice, i.p.;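 for all read-outs here: Electroshock-induced convulsion model serving to demonstrate antiepileptic efficacy against generalized and partial seizures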; type: in vivo; conditions: for ED50: Mus musculus, ip, Table 15
[4] = Neurotoxicity in mice (rotorod ataxia test), i.p.; conditions: mouse, in vivo, ip
Procedure: (§1) Neurotoxicity of the claimed agents was also assessed in mice (i.p. administration) by the rotorod ataxia test and/or in rats (p.o. administration) by positional sense test and gait stance test. […] The term quantitating the neurotoxicity is the medial neurological toxic dose (TD50), was determined in the above tests.

[5] = in vivo; conditions: rat, in vivo, po
Procedure: as §1

[6] = system: rats; assay: Neurotoxicity in rats (positional sense test and gait stance test), p.o.; conditions: rats, p.o.; Table 16
Procedure: as §1

[7] = system: mice; conditions: Mus musculus, ip, read-out: MICE scMet ED50
[8] = system: mice; assay: in vivo
Procedure: as §1

[9] = system: Male mongolian gerbils; assay: Global brain ischemia in gerbils (CA1 pyramidal neurons); type: in vivo; conditions: 3 injections, fraction of hippocampi protected from ischemia, 14 days post-ischemia
Procedure: Each artery was clamped for 5 minutes with aneurysm clips to produce global brain ischemia. The anesthesia was discontinued upon clamping. After 5 minutes the clamps were removed and the wound closed with skin clips.
For treatment, the test compound or vehicle were injected intra-peritoneally (ip) in a volume of 50 microliters of solvent per 10g body weight. The first injection was given two minutes after clamp removal, and thereafter daily for the next 2 post-operative days (total of 3 injections).
Seven groups each of 4-8 animals were compared: • I. Control; (sham- or unoperated and saline treated), • II. Vehicle treated, unoperated (when solvent is other than saline), • III. Ischemia - untreated or saline treated), • IV. Ischemia - vehicle treated (when solvent is other than saline), • V. Ischemia - Test compound treated, one sub-group per concentration tested, • VI. Ischemia and pentobarbital (40 mg/kg) as positive control).
Analysis of neuronal damage was performed 14 days post-ischemia by counting pyramidal neurons throughout the CA1 layer of the anterior hippocampus in […] thick (paraffin) coronal brain sections stained with hematoxylin and erosin.
Percent Protection values represent the fraction of hippocampi protected from ischemia in a group of animals treated with the stated dose of compound.

[10] = system: male ICR albino mice; assay: Hypobaric hypoxia survival time in mice; type: in vivo
Procedure: Dessicator B was disconnected and allowed to equilibrate with room air whilst dessicator A was evacuated to a pressure of 100mmHg. […] The survival time from the moment of induction of hypoxia to the time of cessation of respiration was recorded for each mouse for a maximum of 15 minutes after which time room air was reintroduced to dessicator B. Survivors were monitored for signs of lethargy or vitality.
Effect of drug treatment was assessed as the percent of the survival time of the drug treated group with respect to the saline injected or vehicle injected control group. Control groups were run twice, before and after each experimental group and consisted of 12-16 mice in groups of 4 mice. Each experimental group always consisted of 4 mice to ensure a constant residual volume of oxygen in all tests. The effect of each dose of test drug was determined in duplicate i.e. two groups of 4 mice.
All drugs were administered intra-peritoneally at the dose indicated one hour prior to exposure to hypoxia.

[11] = system: mechanically dissociated neonatal rat cerebellum; assay: Reversal of NMDA induced cell death in cultures of neonatal rat cerebellum; type: cell-based; conditions: for SURVIVING CELL IN CULTURE: relative to control (100%); for PERCENT PROTECTION: Cell Survival minus the NMDA effect
Procedure: The cerebellum was aseptically dissociated from 6 or 7-day old rat pups and placed in a 15ml sterile plastic conical tube containing 3ml of Dulbecco's modified Eagle's medium (DMEM) with a high glucose concentration ([…]) and 2mM (v/v) L-glutamine and an antibiotic antimitotic mixture. The cerebella were then dissociated after 20-25 passages through a sterile 13 gauge, 10cm long stainless steel needle attached to a 5ml syringe with an inserted 45 micrometer pore nylon sieve. The dissociated cells were centrifuged at 200g for 5 minutes. The supernatant was discarded and the cells resuspended in medium enriched with 15% (v/v) heat inactivated fetal calf serum. Cell viability was determined by the tryptan blue exclusion test.
Cells were plated at a density of 200/mm^2 on poly-L-lysine coated surfaces. Poly-L-lysine coated glass coverslips were prepared at least one hour in advance of plating by immersing sterile coverslips in sterile distilled water solution containing 15 microgram/ml poly-L-lysine, and washing in sterile water just prior to use. The plated cells were covered with enriched medium and incubated at 37°C in an atmosphere of 5% CO2 in air and 97% humidity. After three days in culture, the media was replaced with media containing the desired test compound. Each test compound was tested in duplicate. Toxic-dose response was determined for each compound.
Four groups were run in each set of experiments; • I. Control, consisting of enriched media alone, • II. N-methyl-D-aspartate (NMDA, 1mM for 3 hours) as the cytotoxic challenge, • III. Test compound plus NMDA, and • IV. Positive control, spermine(0.01 micromoles) plus NMDA.
Nerve cell survival was evaluated by phase contrast microscopy and tryptan blue staining after 24 hours.
Surviving cells in culture are measured relative to control (100%), as described above. Percent protection is the Cell Survival for the test compound minus the NMDA effect. Thus, maximal protection is 100% minus 30% NMDA effect i.e. […]. The Effective Protection was calculated as the percent of the Percent Protection (X) divided by the maximal protection value (e.g. X x 100/70).

[12] = system: rats; assay: Closed head injury in rats: motor function (Neurological Severity Status), Experiments 4A-4E
[13] = read-out: RATS MES 50, rats, p.o., Table 15
[14] = rats, p.o., Table 15, read-out: RATS MES 50
[15] = 50 mg/kg ip one hour prior to hypoxia
[16] = 100 mg/kg ip one hour prior to hypoxia
[17] = Exp 4A, 0.1mg/kg i.p. at 0,4,8 and 12 hours post-trauma
[18] = Exp 4B, 0.1mg/kg once a day for 14 days

In the case of `C#CCN[C@@H]1CCc2ccccc21.Cl` [E, (R)-N-propargyl-1-aminoindan HCl salt], the ED50 [1] is reported as > 154 mg/kg, the ED50 [2, 13] is reported as < 50 mg/kg and the ED50 [3] is reported as 79 mg/kg.
For `NC(=O)CN[C@@H]1CCc2ccccc21` [Example 1, (R)-N-(2-Aeetamido)-1-aminoindan.HCl], the TD50 ([4]; MICE TD50, mice, Table 15) was 198 mg/kg, the TD50 ([4]; MICE TD50, mice, Table 16) was 198 mg/kg and the TD50 [5] was > 50 mg/kg. For the same compound, the “RATS TD50” value [6] was >50 mg/kg, the ED50 [7] was > 200 mg/kg and the “RATS MES 50” value ([2]; rats, p.o., Table 15) was 50 mg/kg. For the same compound, the ED50 [3] was 77 mg/kg.
With `C#CCN[C@H]1CCc2ccccc21.CS(=O)(=O)O` [H, (S)-N-propargyl-1-aminoindan mesylate salt] the ED50 [7] was > 200 mg/kg, the ED50 [2, 13] was ≤ 50 mg/kg and the ED50 [3] was ≤ 50 mg/kg.
For `NC1CCc2ccc(F)cc21` (stereo not shown) [I, 6-fluoro-1-aminoindan], the “MICE TD50” value ([8]; mouse, in vivo, ip) was 58 mg/kg, the TD50 ([4]; MICE TD50) was 58 mg/kg and the TD50 [5] was > 50 mg/kg. The “RATS TD50” value [6] was >50 mg/kg, the ED50 [1] was > 100 mg/kg and the ED50 [2, 14] was < 50 mg/kg. It also gave an ED50 [3] of 66 mg/kg.
With `N[C@@H]1CCc2ccc(F)cc21` [J, (R)-6-fluoro-1-aminoindan] the “MICE TD50” value ([8]; mouse, in vivo, ip) was 78 mg/kg, the TD50 ([4]; MICE TD50) was 78 mg/kg and the “PERCENT PROTECTION” value ([9]; 0.1 mg/kg ip) was 27.5%. For the same compound, the “PERCENT PROTECTION” value ([9]; 1.0 mg/kg ip) was 25.0%, the “PERCENT PROTECTION” value ([9]; 10.0 mg/kg ip) was 25.0% and the “PROTECTION % OF RESPECTIVE CONTROL” value [10, 15] was 305±185 % OF RESPECTIVE CONTROL. The “PROTECTION % OF RESPECTIVE CONTROL” value [10, 16] was 241±56 % OF RESPECTIVE CONTROL, the TD50 [5] was > 50 mg/kg and the “RATS TD50” value [6] was >50 mg/kg. For the same compound, the ED50 [1] was > 100 mg/kg, the ED50 [2, 14] was < 50 mg/kg and the “SURVIVING CELL IN CULTURE” value ([11]; 0.005 µM + NMDA 1mM for 3 hours) was 108%. For the same compound, the “PERCENT PROTECTION” value ([11]; 0.005 µM + NMDA) was 78%, the “EFFECTIVE PROTECTION” value ([11]; 0.005 µM + NMDA, X x 100/70) was 111% and the “SURVIVING CELL IN CULTURE” value ([11]; 0.010 µM + NMDA 1mM for 3 hours) was 79%. The “PERCENT PROTECTION” value ([11]; 0.010 µM + NMDA) was 49%, the “EFFECTIVE PROTECTION” value ([11]; 0.010 µM + NMDA, X x 100/70) was 70% and the “SURVIVING CELL IN CULTURE” value ([11]; 0.100 µM + NMDA 1mM for 3 hours) was 62%. For the same compound, the “PERCENT PROTECTION” value ([11]; 0.100 µM + NMDA) was 32%, the “EFFECTIVE PROTECTION” value ([11]; 0.100 µM + NMDA, X x 100/70) was 46% and the “SURVIVING CELL IN CULTURE” value ([11]; 1.000 µM + NMDA 1mM for 3 hours) was 53%. The “PERCENT PROTECTION” value ([11]; 1.000 µM + NMDA) was 23%, the “EFFECTIVE PROTECTION” value ([11]; 1.000 µM + NMDA, X x 100/70) was 33% and the “SURVIVING CELL IN CULTURE” value ([11]; 5.000 µM + NMDA 1mM for 3 hours) was 60%. The “PERCENT PROTECTION” value ([11]; 5.000 µM + NMDA) was 30%, the “EFFECTIVE PROTECTION” value ([11]; 5.000 µM + NMDA, X x 100/70) was 43% and the ED50 [3] was 65 mg/kg.
In the case of `C#CCNC1CCc2ccc(F)cc21` (stereo not shown) [L, 6-fluoro-N-propargyl-1-aminoindan], the “MICE TD50” value ([8]; mouse, in vivo, ip) is reported as 188 mg/kg, the TD50 ([4]; MICE TD50) is reported as 188 mg/kg and the TD50 [5] is reported as > 50 mg/kg. For the same compound, the “RATS TD50” value [6] was >50 mg/kg, the ED50 [1] was > 300 mg/kg and the ED50 [2, 14] was 50 mg/kg. The ED50 [3] was 74 mg/kg and the “activity in the MES model in mice” value ([3]; statement in words) was “showed activity”.
For `N[C@H]1CCc2ccccc21` [SAI, (S)-1-aminoindan], the “NSS 1hr” value [12, 17] was 16.4, the “NSS 24hr” value [12, 17] was 10.8 and the ΔNSS ([12]; Exp 4A, 0.1mg/kg i.p. at 0,4,8 and 12 hours post-trauma, change 1 hour to 24 hours) was 5.6±0.5. For the same compound, the “NSS at 1hr” value [12, 18] was 16.6±0.3, the “ΔNSS at 24hr” value [12, 18] was 5.5±0.4 and the “ΔNSS at 48hr” value [12, 18] was 6.8±2.7. For the same compound, the “ΔNSS at 7d” value [12, 18] was 8.3±1.0, the “ΔNSS at 14d” value [12, 18] was 9.5±1.0 and the “MICE TD50” value ([8]; mice, i.p., Table 16) was 25 mg/kg. For the same compound, the TD50 [4] was 25 mg/kg, the “PERCENT PROTECTION” value ([9]; 0.1 mg/kg ip) was 0% and the “PERCENT PROTECTION” value ([9]; 1.0 mg/kg ip) was 50.0%. For the same compound, the “PERCENT PROTECTION” value ([9]; 10.0 mg/kg ip) was 75.0%, the “PROTECTION % OF RESPECTIVE CONTROL” value [10, 15] was 174±39 % OF RESPECTIVE CONTROL and the “PROTECTION % OF RESPECTIVE CONTROL” value [10, 16] was 404±244 % OF RESPECTIVE CONTROL. For the same compound, the “PROTECTION % OF RESPECTIVE CONTROL” value ([10]; dose cell empty (line below 50 mg/kg ip)) was 264±66 % OF RESPECTIVE CONTROL, the TD50 [5] was > 500 mg/kg and the “RATS TD50” value [6] was >500 mg/kg. For the same compound, the ED50 ([2]; read-out: RATS MES 50) was 17 mg/kg, the “EFFECTIVE PROTECTION” value ([11]; separate experiment, Maximum Protection possible 90%, 0.01 µM) was 43% and the “EFFECTIVE PROTECTION” value ([11]; separate experiment, Maximum Protection possible 90%, 0.05 µM) was 57%.
